According to patent publication US20230293348A1, “DYES FOR USE IN A METHOD OF PHOTOPORATION OF THE INNER LIMITING MEMBRANE” (UNIVERSITEIT GENT, priority 2020, published 2023):
“Also recorded” adds a separate entry of the source.

Columns and labels:
human ILM [1] = assay: Inherent affinity of free ICG for the ILM; type: binding; details: preliminary data
ILM of bovine explants = assay: Retinal entry of 100 nm polystyrene nanoparticles (Fluospheres) after ICG-mediated ILM perforation; details: ICG 1 mg/ml, 0,4 J/cm^2 laser
Source text: FIG. 5: Images of cryosections of bovine explants stained for nuclei in the retina by Hoechst (indicated in grey - low contrast). […] Scale = 25 µm
It was further tested whether ICG-mediated ILM ablation allowed to deliver therapeutics to the retina.

[2] = tested on: retinal surface of bovine retinal explants (Müller cell endfeet, nerve fibers); assay: Retinal surface imaging with Mitotracker Deep Red and Hoechst after ICG photoporation; details: ICG 0,1 mg/ml, 0,4 J/cm^2 laser
Protocol: FIG. 4: Images of the retinal surface after staining with Mitotracker and Hoechst. […] Scale bar = 25 µm.
Furthermore, a method was tested to look at the retinal surface in more detail, allowing to visualize several types of structures such as nerve fibers, blood vessels, and Müller cells (cell type located right underneath the ILM). To this end, intact retinal explants were stained with a dye mixture of Mitotracker Deep Red and Hoechst, which allows to identify these structures. […] Indeed, in untreated explants, the retinal surface was neatly organized: a mosaic of Müller cell endfeet intertwined with bundles of nerve fibers.

human ILM [3] = assay: ILM ablation by ICG photoporation in human explants, cryosections stained for Collagen IV; details: 1 mg/ml ICG, 0,4 J/cm2 laser fluence
Protocol: FIG. 6: Images of cryosections of human explants stained for nuclei in the retina by Hoechst staining (indicated in grey - low contrast) and showing the ILM stained by antibodies against Collagen IV (indicated in white); scale = 25 µm. Top row: untreated; bottom row: treatment with 1 mg/ml ICG and 0,4 J/cm^2 laser fluence. Absence of the ILM is indicated by a dashed line.
Therefore, the approach was tested on human samples. Since the thickness of the ILM is also age dependent, we investigated human ILM ablation in younger and older patients. […] As illustrated in the top row, the ILM in untreated explants becomes gradually thicker with increasing age, which is an observation in accordance with literature (FIG. 6, untreated). Treated samples (bottom row) were treated with 1 mg/ml ICG and 0,4 J/cm2 laser fluence. Absence of the ILM is indicated by a dashed line.

[4] = tested on: ILM of bovine retinal explants; assay: ILM perforation by ICG photoporation, cryosections stained for Collagen IV; details: ICG 1 mg/ml, 0,4 J/cm^2 800 nm 2 ps laser pulses
Source text: FIG. 2: Images of cryosections of conventional bovine explants stained for nuclei in the retina by Hoechst staining (indicated in grey - low contrast) and showing the ILM stained by antibodies against Collagen IV (indicated in white). […] The study aimed to perforate the ILM by photoporation. Thereto, a vital dye, in particular Indocyanine Green (ICG), was delivered to the ILM after which the retina was illuminated with a powerful but extremely short pulse of 800 nm laser light. Without being bound to theory, the absorbance of light by the ICG can result in the evaporation of the surrounding water, creating vapour nanobubbles (VNBs) which upon collapse can cause damage to neighbouring tissue such as in particular the ILM. To generate ILM perforation, an ICG solution (1 mg/ml) was applied on the ILM surface of bovine retinal explants followed by laser scanning of the tissue with 2 picosecond pulses.

For `CC1(C)C(/C=C/C=C/C=C/C=C2\N(CCCCS(=O)(=O)O)c3ccc4ccccc4c3C2(C)C)=[N+](CCCCS(=O)(=O)[O-])c2ccc3ccccc3c21` [ICG, Indocyanine Green], the “inherent affinity for the human ILM versus the bovine ILM” value (human ILM [1]) was “remarkably higher than for the bovine ILM”, the “retinal entry of 100 nm polystyrene nanoparticles” value (ILM of bovine explants) was “high retinal uptake; also recorded: massive entry of the nanoparticles into the retina” and the “retinal surface organization (Mitotracker and Hoechst staining)” value [2] was “greatly disturbed; also recorded: way more disorganized”. The “ILM integrity on cryosections” value (human ILM [3]; human explant patient one) was “fragmented ILM”, the “ILM integrity on cryosections” value (human ILM [3]; human explant patient three) was “completely absent” and the “ILM integrity on cryosections” value (human ILM [3]; human explant patient two) was “completely absent”. For the same compound, the “ILM integrity on cryosections” value [4] was “ILM ablation; also recorded: most of the ILM was absent with only small parts remaining”.
